Legend:
[1] = biological target: Human CB1R (Cannabanoid receptor 1) (Homo sapiens (Human), UniProt P21554); assay: CB-1 in vitro cAMP assay (HTRF); assay type: cell-based; settings: mean where tested more than once
Summary of the method: (§1)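 HEK-293 cells stably transfected with the human receptor, plated overnight at 4E5 cells/mL. Compounds given as 1/3 serial dilutions from 10 mM DMSO stocks. Stimulation in HBSS/5 mM HEPES/0.1% BSA with 0.5 mM IBMX and forskolin (1.5 μM in buffer); cAMP measured by competitive HTRF immunoassay (d2-cAMP, cryptate anti-cAMP) against a cAMP standard curve.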

[2] = biological target: Human CB2R (Cannabanoid receptor 2) (Homo sapiens (Human), UniProt P34972); assay: CB-2 in vitro cAMP assay (HTRF); assay type: cell-based; settings: mean where tested more than once
Summary of the method: as §1

Human CB1R (Cannabanoid receptor 1), sequence (P21554 whole entry): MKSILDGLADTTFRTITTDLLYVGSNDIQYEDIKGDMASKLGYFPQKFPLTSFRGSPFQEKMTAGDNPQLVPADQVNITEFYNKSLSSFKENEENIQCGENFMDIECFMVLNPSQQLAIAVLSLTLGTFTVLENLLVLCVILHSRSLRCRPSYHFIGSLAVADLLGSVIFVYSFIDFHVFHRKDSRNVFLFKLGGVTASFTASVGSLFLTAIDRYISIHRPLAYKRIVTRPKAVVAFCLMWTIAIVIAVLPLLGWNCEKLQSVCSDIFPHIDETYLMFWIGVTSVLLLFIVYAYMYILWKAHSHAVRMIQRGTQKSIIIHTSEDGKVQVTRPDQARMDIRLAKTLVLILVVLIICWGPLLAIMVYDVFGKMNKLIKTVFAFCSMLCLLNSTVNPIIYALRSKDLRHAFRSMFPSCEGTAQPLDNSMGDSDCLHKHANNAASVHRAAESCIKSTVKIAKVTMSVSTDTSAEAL
Human CB2R (Cannabanoid receptor 2), sequence (P34972 whole entry): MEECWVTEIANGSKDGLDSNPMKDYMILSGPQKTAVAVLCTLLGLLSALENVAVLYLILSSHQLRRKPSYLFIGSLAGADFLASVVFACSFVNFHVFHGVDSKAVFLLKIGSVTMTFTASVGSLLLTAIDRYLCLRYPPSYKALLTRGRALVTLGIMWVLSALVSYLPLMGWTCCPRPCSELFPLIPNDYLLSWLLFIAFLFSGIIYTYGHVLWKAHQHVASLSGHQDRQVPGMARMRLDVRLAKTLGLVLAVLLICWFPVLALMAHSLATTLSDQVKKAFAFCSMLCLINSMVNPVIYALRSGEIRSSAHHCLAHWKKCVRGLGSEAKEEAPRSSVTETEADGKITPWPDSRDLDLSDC

SMILES	EC50 [1] [nM]	EC50 [2] [µM]
Clc1ccc(C(c2ccc(Cl)cc2)c2ccc3ncnc(NC4CCN(CCc5ccccc5)CC4)c3c2)cc1 [Compound #11, 6-(bis(4-chlorophenyl)methyl)-N-(1-phenethylpiperidin-4-yl)quinazolin-4-amine]	124	> 10
NC(=O)CS(=O)(=O)N1CCC(Nc2ncnc3ccc(C(c4ccc(Cl)cc4)c4ccc(Cl)cc4)cc23)CC1 [Compound #98, 2-((4-((6-(bis(4-chlorophenyl)methyl)quinazolin-4-yl)amino)piperidin-1-yl)sulfonyl)acetamide]	232	7.9
O=C(O)COc1ccc(S(=O)(=O)N2CCC(Nc3ncnc4ccc(C(c5ccc(Cl)cc5)c5ccc(Cl)cc5)cc34)CC2)cc1 [Compound #3, 2-(4-((4-((6-(bis(4-chlorophenyl)methyl)quinazolin-4-yl)amino)piperidin-1-yl)sulfonyl)phenoxy)acetic acid]	98	3.43
C[C@@H](Nc1ncnc2ccc(C(c3ccc(Cl)cc3)c3ccc(Cl)cc3)cc12)c1cccc(C(F)(F)F)c1 (single isomer, unassigned) [compound 115]	34	8.2
COC(=O)c1ccc(CN2CCC(Nc3ncnc4ccc(C(c5ccc(Cl)cc5)c5ccc(Cl)cc5)cc34)CC2)cc1 [Compound #43, Methyl 4-((4-((6-(bis(4-chlorophenyl)methyl)quinazolin-4-yl)amino)piperidin-1-yl)methyl)benzoate]	59	> 10
O=C(c1ccccc1)N1CCC(Nc2ncnc3ccc(C(c4ccc(Cl)cc4)c4ccc(Cl)cc4)cc23)CC1 [compound 119, (4-(6-(bis(4-chlorophenyl)methyl)quinazolin-4-ylamino)piperidin-1-yl)(phenyl)methanone]	5	0.91
CN(Cc1ccc(C(F)(F)F)cc1)c1ncnc2ccc(C(c3ccc(Cl)cc3)c3ccc(Cl)cc3)cc12 [Compound #132, 6-(bis(4-chlorophenyl)methyl)-N-methyl-N-(4-(trifluoromethyl)benzyl)quinazolin-4-amine]	173	> 14
CCOC(=O)COc1ccc(S(=O)(=O)N2CCC(Nc3ncnc4ccc(C(c5ccc(Cl)cc5)c5ccc(Cl)cc5)cc34)CC2)cc1 [Compound #4, Ethyl 2-(4-((4-((6-(bis(4-chlorophenyl)methyl)quinazolin-4-yl)amino)piperidin-1-yl)sulfonyl)phenoxy)acetate]	9	0.17
O=C(O)c1cccc(CN2CCC(Nc3ncnc4ccc(C(c5ccc(Cl)cc5)c5ccc(Cl)cc5)cc34)CC2)c1 [Compound #37, 3-((4-((6-(bis(4-chlorophenyl)methyl)quinazolin-4-yl)amino)piperidin-1-yl)methyl)benzoic acid]	146	6.76
O=S(=O)(NC1CCN(c2ncnc3ccc(C(c4ccc(Cl)cc4)c4ccc(Cl)cc4)cc23)CC1)C(F)(F)F [Compound #104, N-(1-(6-(bis(4-chlorophenyl)methyl)quinazolin-4-yl)piperidin-4-yl)-1,1,1-trifluoromethanesulfonamide]	68	> 10
O=C(O)c1ccc(CN2CCC(Nc3ncnc4ccc(C(c5ccc(Cl)cc5)c5ccc(Cl)cc5)cc34)CC2)s1 [compound 34, 5-((4-(6-(bis(4-chlorophenyl)methyl)quinazolin-4-ylamino)piperidin-1-yl)methyl)thiophene-2-carboxylic acid]	176	> 10
CC(=O)NCCOc1nc(NCc2ccc(C(F)(F)F)cc2)c2cc(C(c3ccc(Cl)cc3)c3ccc(Cl)cc3)ccc2n1 [Compound #69, N-(2-((6-(bis(4-chlorophenyl)methyl)-4-((4-(trifluoromethyl)benzyl)amino)quinazolin-2-yl)oxy)ethyl)acetamide]	98	> 10
COC(=O)c1cccc(CNc2ncnc3ccc(C(c4ccc(Cl)cc4)c4ccc(Cl)cc4)cc23)c1 [Compound #62, Methyl 3-(((6-(bis(4-chlorophenyl)methyl)quinazolin-4-yl)amino)methyl)benzoate]	14	8.08
COC(=O)c1cccc(N2CCC(Nc3ncnc4ccc(C(c5ccc(Cl)cc5)c5ccc(Cl)cc5)cc34)CC2)c1 [compound 97, methyl 3-(4-(6-(bis(4-chlorophenyl)methyl)quinazolin-4-ylamino)piperidin-1-yl)benzoate]	83	> 10
O=C(c1ccc(S(=O)(=O)NCCO)cc1)N1CCC(Nc2ncnc3ccc(C(c4ccc(Cl)cc4)c4ccc(Cl)cc4)cc23)CC1 [Compound #45, 4-(4-((6-(bis(4-chlorophenyl)methyl)quinazolin-4-yl)amino)piperidine-1-carbonyl)-N-(2-hydroxyethyl)benzenesulfonamide]	222	1.2
O=C(O)c1csc(CN2CCC(Nc3ncnc4ccc(C(c5ccc(Cl)cc5)c5ccc(Cl)cc5)cc34)CC2)c1 [Compound #18, 5-((4-((6-(bis(4-chlorophenyl)methyl)quinazolin-4-yl)amino)piperidin-1-yl)methyl)thiophene-3-carboxylic acid]	165	6.26
NC(=O)c1ccc(CN2CCC(Nc3ncnc4ccc(C(c5ccc(Cl)cc5)c5ccc(Cl)cc5)cc34)CC2)cc1 [compound 38, 4-((4-(6-(bis(4-chlorophenyl)methyl)quinazolin-4-ylamino)piperidin-1-yl)methyl)benzamide]	191	3.57
FC(F)(F)CN1CCC(Nc2ncnc3ccc(C(c4ccc(Cl)cc4)c4ccc(Cl)cc4)cc23)CC1 [Compound #123, 6-(bis(4-chlorophenyl)methyl)-N-(1-(2,2,2-trifluoroethyl)piperidin-4-yl)quinazolin-4-amine]	2	0.49
NC(=O)CCC(=O)N1CCC(Nc2ncnc3ccc(C(c4ccc(Cl)cc4)c4ccc(Cl)cc4)cc23)CC1 [Compound #86, 4-(4-((6-(bis(4-chlorophenyl)methyl)quinazolin-4-yl)amino)piperidin-1-yl)-4-oxobutanamide]	2460	9
O=C(O)c1ccccc1CN1CCC(Nc2ncnc3ccc(C(c4ccc(Cl)cc4)c4ccc(Cl)cc4)cc23)CC1 [compound 21, 2-((4-(6-(bis(4-chlorophenyl)methyl)quinazolin-4-ylamino)piperidin-1-yl)methyl)benzoic acid]	4820	4.71
COc1ccc(C(c2ccc(Cl)cc2)c2ccc3ncnc(NC4CCN(c5ccccc5)CC4)c3c2)cc1 (stereo not shown) [Compound #58, 6-((4-chlorophenyl)(4-methoxyphenyl)methyl)-N-(1-phenylpiperidin-4-yl)quinazolin-4-amine]	0.5	0.067
O=C(O)COc1nc(NCc2cccc(C(F)(F)F)c2)c2cc(C(c3ccc(Cl)cc3)c3ccc(Cl)cc3)ccc2n1 [compound 51, 2-((6-(bis(4-chlorophenyl)methyl)-4-((3-(trifluoromethyl)benzyl)amino)quinazolin-2-yl)oxy)acetic acid]	583	3.34
FC(F)(F)c1cncc(CNc2ncnc3ccc(C(c4ccc(Cl)cc4)c4ccc(Cl)cc4)cc23)c1 [compound 126, 6-(bis(4-chlorophenyl)methyl)-N-((5-(trifluoromethyl)pyridin-3-yl)methyl)quinazolin-4-amine]	25	1.18
NC(=O)c1cccc(N2CCC(Nc3ncnc4ccc(C(c5ccc(Cl)cc5)c5ccc(Cl)cc5)cc34)CC2)c1 [compound 96, 3-(4-(6-(bis(4-chlorophenyl)methyl)quinazolin-4-ylamino)piperidin-1-yl)benzamide]	23	0.218
O=S(=O)(c1ccccn1)N1CCC(Nc2ncnc3ccc(C(c4ccc(Cl)cc4)c4ccc(Cl)cc4)cc23)CC1 [compound 111, 6-(bis(4-chlorophenyl)methyl)-N-(1-(pyridin-2-ylsulfonyl)piperidin-4-yl)quinazolin-4-amine]	15	2.74
CS(=O)(=O)Nc1nc(NC2CCN(S(=O)(=O)C(F)(F)F)CC2)c2cc(C(c3ccc(Cl)cc3)c3ccc(Cl)cc3)ccc2n1 [Compound #100, N-(6-(bis(4-chlorophenyl)methyl)-4-((1-((trifluoromethyl)sulfonyl)piperidin-4-yl)amino)quinazolin-2-yl)methanesulfonamide]	432	> 10

Source: patent publication US9682955B2, “Quinazoline derivatives useful as CB-1 inverse agonists” (Janssen Pharmaceutica NV, priority 2014, dated 2017)
